Results taken from paper PMC10189451, “Palmitic acid‐ and cysteine‐functionalized nanoparticles overcome mucus and epithelial barrier for oral delivery of drug” (Bioengineering & Translational Medicine, 2023).

Assays:
[1] = Cytotoxicity assay (CCK‐8) on HepG‐2; format: cell-based; conditions: human, HepG-2 cells; read-out: Cell viability of HepG‐2
Procedure: HT29‐MTX and HepG‐2 were cultured in RPMI medium and MEM, respectively, supplemented with 10% fetal bovine serum, 1% (v/v) penicillin, and streptomycin. HT29‐MTX or HepG‐2 were seeded (100 μL) into a 96‐well plate at a cell density of 1 × 10^4 cells/well. […] After co‐incubation for 24 h, the cytotoxicity was analyzed by CCK‐8 assay (Cell Counting Kit‐8, Beyotime).

DSS‐induced colitis = test: Efficacy on DSS‐induced colitis mice; format: in vivo, BALB/c mice; conditions: daily oral 7 days, CUR 50 mg/kg
Procedure: Male BALB/c mice (6–8 weeks, 20–25 g) were randomly divided into five groups with eight mice in each group after 1 week of acclimation. Except for the normal control group, the remaining four groups were given 3% DSS instead of ordinary drinking water for 7 days, during which they were fed normally to establish the mice colitis model. […] The body weight of the mice was recorded every day, and DAI was measured to assess the severity of the colitis according to body weight loss, character of stool, and the degree of hematochezia (Table 3).
After treatment with different formulas, the mice were sacrificed after anesthesia, the colon length was measured, and the colon tissue was fixed with 10% formalin and stained with hematoxylin and eosin (H&E) for pathological examination. To count colonic goblet cells, fixed colonic tissues were also stained using Alcian blue. […]
In addition, a portion of collected colon tissue (50 mg) was homogenized with RIPA lysis buffer (Thermo Fisher, Shanghai, China) to extract total proteins. […] The protein content of supernatant was quantified using a bicinchoninic acid (BCA) protein assay kit (Thermo Fisher, Shanghai, China). The concentration of pro‐inflammatory cytokines such as TNF‐α and IL‐1β was measured by ELISA kit (Enzyme‐linked Biotechnology Co., Ltd., China).

HT29‐MTX = test: Cellular uptake of the NPs loaded with CUR (CLSM, HPLC); format: cell-based; conditions: CUR 5–20 μg/mL, 2 and 4 h, CLSM fluorescence / HPLC
Procedure: HT29‐MTX was seeded in the 12‐well plate with 2 × 10^5 cells/well and incubated overnight. […] After co‐incubation for prescribed time intervals (2 and 4 h), the cells were cleaned with PBS and lysed by 1% Triton X‐100 at 4°C. […] The cellular uptake efficiency was calculated using Formula (11). In addition, after fixation with 4% paraformaldehyde, the HT29‐MTX stained with Hoechst 33342 were observed by CLSM. (11) Cellular uptake%=Cellular intake ofCUR/Total amount ofCURadded×100.
HT29-MTX was seeded in the 12-well plate with 2×10^5 cells/well and incubated overnight. […] After co-incubation for prescribed time intervals (2 and 4 h), the cells were cleaned with PBS and lysed by 1% Triton X-100 at 4 ℃. […] In addition, the HT29-MTX stained with Hoechst 33342 were observed by CLSM.

[2] = In vivo absorption in ligated small intestinal loops (CLSM); conditions: SD rats, 2 h
Procedure: In vivo transportation of the FITC‐labeled PA‐N‐2‐HACC NPs and FITC‐labeled PA‐N‐2‐HACC‐Cys NPs through the epithelial mucosa was qualitatively analyzed using […] in vivo absorption study.[69] Male SD rats (6–8 weeks, 230–250 g) were anesthetized by chloral hydrate, and 2‐cm sections of small intestinal loops were ligated at both ends. Then, 100 μL of 1 mg/mL FITC‐labeled PA‐N‐2‐HACC NPs and PA‐N‐2‐HACC‐Cys NPs were administered into different intestinal loops of the same SD rats (n = 3). […] After 2 h, the rats were sacrificed, and the loops treated with the FITC‐labeled NPs were withdrawn and washed with PBS (pH = 7.4). After fixation in 4% paraformaldehyde for 4 h and dehydration in 30% sucrose overnight, the loops were embedded in optimal cutting temperature compound and sectioned into 10‐μm slices using a freezing microtome (Leica CM1860, Wetzlar, Germany). Cell nuclei were stained with Hoechst 33342 for 10 min and visualized using CLSM.
All the animal care and experimental protocols were in accordance with the “National Research Council's Guide for the Care and Use of Laboratory Animals”. Male SD rats (6-8 weeks, 230-250 g) were anesthetized by chloral hydrate, and 2 cm sections of small intestinal loops were ligated at both ends. […]

[3] = Pharmacokinetic study after oral administration; format: in vivo, SD rats
Procedure: Nine male SD rats were randomly divided into three groups (n = 3). […] Moreover, 500 μL of blood was taken before administration, and 300 μL of blood was taken from the heart at 0.25, 0.5, 1, 2, 4, 6, 9, 12, and 24 h after administration. The plasma samples were centrifuged at 3000 r/min for 10 min. Subsequently, 100 μL of plasma was mixed with 10 μL methanol containing internal standard (rheum emodin, 20 μg/mL). After vortexing for 3 min, 250 μL ethyl acetate was added, and the mixture was centrifuged at 3000 r/min for 10 min. The extraction residue was reconstituted in 100 μL of mobile phase and determined by HPLC. The mobile phase was a mixture of acetonitrile: water (containing 2% acetic acid) (52:48, v/v), the flow rate was 1 mL/min, and the detection wavelength was 426 nm. Pharmacokinetic parameters were calculated using PK SOLVER for the noncompartmental model.

[4] = male, SD, rat, plasma, po, 50 mg/kg

SMILES: COc1cc(/C=C/C(=O)CC(=O)/C=C/c2ccc(O)c(OC)c2)ccc1O [CUR, Curcumin]
- viability at 24 h, 12.5 μg/mL [1]: 77.5%
- Clinical symptoms (body weight loss, colon length shortening, DAI increase) (DSS‐induced colitis): significantly improved
- Colonic epithelial mucosa / goblet cells (Alcian blue staining) (DSS‐induced colitis): relieved the damage caused by DSS
- Cellular uptake of CUR in HT29‐MTX (in words) (HT29‐MTX): weak fluorescence intensity
- Fluorescence signal in intestinal tissue (in vivo absorption, in words) [2]: weak green fluorescence signal
- CL ([3]; SD rats, oral, CUR dose 50 mg/kg, n = 3): 782.7 ± 18.7 mL/min/kg
- Cmax [3, 4]: 41 ± 10 ng/mL
- MRT [3, 4]: 4.71 ± 0.48 h
- Tmax [3, 4]: 1 h
- half-life [3, 4]: 3.27 ± 0.32 h
- AUC ([3]; male, SD, rat, plasma, po, 50 mg/kg, read-out: AUC0‐∞): 252 ± 110 ng·h/mL
